Assay results: the supplement of paper PMC11451515

How the values were obtained:
Experiment in all cases: AUC of viability dose-response curve (% viability x log10 dose units); higher = less sensitive
Conditions in all cases: 48 h
NOMO1 = test system: NOMO1
Method in brief: (§1)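 Leukemia cells adapted to each medium were seeded in 1536-well plates (500 or 1000 cells/well) and given library compounds in DMSO for 48 h at 37°C. The 11 threefold doses spanned 47 μM to 0.79 nM, and CellTiter-Glo One luminescence was normalised per plate to DMSO and cell-free wells before four-parameter log-logistic fitting on log10 dose. Area under the curve was integrated with the trapezoidal rule, scaling curves above full viability and removing curves that failed quality control.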

P12-Ichikawa = test system: P12-Ichikawa
Method in brief: as §1

SEM cells = test system: SEM cells
Method in brief: as §1

[1] = RPMI 5 mM glucose + 10% dialyzed FBS

| Structure (SMILES) | AUC of viability dose-response curve (NOMO1; HPLM + 10% dialyzed FBS) | AUC of viability dose-response curve (NOMO1; RPMI 5 mM glucose + 10% FBS) | AUC of viability dose-response curve (NOMO1; [1]) | AUC of viability dose-response curve (P12-Ichikawa; HPLM + 10% dialyzed FBS) | AUC of viability dose-response curve (P12-Ichikawa; RPMI 5 mM glucose + 10% FBS) | AUC of viability dose-response curve (P12-Ichikawa; [1]) | AUC of viability dose-response curve (SEM cells; HPLM + 10% dialyzed FBS) | AUC of viability dose-response curve (SEM cells; RPMI 5 mM glucose + 10% FBS) | AUC of viability dose-response curve (SEM cells; [1]) |
| --- | --- | --- | --- | --- | --- | --- | --- | --- | --- |
| CCN(CC)CCNC(=O)c1ccc2nc(-c3ccccc3)c(-c3ccc(CN4CCC(n5c(=O)[nH]c6ccccc65)CC4)cc3)nc2c1 | 354 | 400 | 399 | 355 | 380 | 358 | 246 | 221 | 243 |
| CNCCN(C)Cc1c[nH]nc1-c1ccc(O[C@H]2C[C@H](OCCC3CCOCC3)C2)cc1 | 457 | 461 | 465 | 457 | 472 | 468 | 436 | 397 | 431 |
| CC[P](CC)(CC)=[Au][S][C@@H]1O[C@H](COC(C)=O)[C@@H](OC(C)=O)[C@H](OC(C)=O)[C@H]1OC(C)=O | 357 | 344 | 354 | 375 | 339 | 331 | 327 | 336 | 315 |
| COc1ccc(CC2SC(=O)NC2=O)cc1C(=O)NCc1ccc(C(F)(F)F)cc1 (stereo not given) | 416 | 415 | 427 | 430 | 396 | 361 | 381 | 439 | 393 |
| CCC[S+](=O)([O-])Nc1ccc(F)c(C(=O)c2c[nH]c3ncc(-c4ccc(Cl)cc4)cc23)c1F | 445 | 477 | 461 | 455 | 452 | 446 | 470 | 474 | 464 |
| CC1(C)NC(=O)N(c2ccc([N+](=O)[O-])c(C(F)(F)F)c2)C1=O | 439 | 431 | 407 | 424 | 410 | 371 | 404 | 454 | 461 |
| OC[C@H]1O[C@H](C[C@@H]1O)N2\C=C(\I)C(=O)NC2=O | 456 | 470 | 446 | 435 | 462 | 472 | 452 | 454 | 386 |
| Cc1ccc([S+](=O)([O-])NC(=O)NN2CC3CCCC3C2)cc1 (stereo not given) | 433 | 436 | 439 | 388 | 378 | 371 | 369 | 334 | 337 |
| Oc1ccc(C2CNCCc3c2cc(O)c(O)c3Cl)cc1 (stereo not given) | 449 | 425 | 454 | 453 | 456 | 427 | 441 | 426 | 438 |
| COc1ccccc1OCC(O)CN1CCN(CC(=O)Nc2c(C)cccc2C)CC1 (stereo not given) | 460 | 453 | 465 | 467 | 469 | 468 | 433 | 471 | 469 |
| COC(=O)Nc1nc2cc(Sc3ccccc3)ccc2[nH]1 | 377 | 391 | 387 | 377 | 376 | 382 | 377 | 365 | 371 |
| CN(C)[C@H]\1[C@@H]2[C@@H](O)[C@H]3\C(=C(O)/[C@]2(O)C(=O)\C(=C1O)C(N)=O)C(=O)C4=C(C=CC=C4O)[C@@]3(C)O | 448 | 459 | 449 | 454 | 456 | 421 | 459 | 463 | 476 |
| Cc1ccc(C)c(OCCCC(C)(C)C(=O)O)c1 | 457 | 449 | 447 | 458 | 429 | 413 | 442 | 456 | 453 |
| Cc1n[nH]c2ccc(-c3cncc(OC[C@@H](N)Cc4c[nH]c5ccccc45)c3)cc12 | 270 | 310 | 280 | 309 | 294 | 290 | 245 | 286 | 265 |
| CNC(=O)c1cc(COc2nnc(Nc3ccc(Cl)cc3)c3ccoc23)ccn1 | 449 | 446 | 452 | 440 | 458 | 440 | 452 | 446 | 436 |
| NC(=O)[C@@H](CCC(F)(F)F)N(Cc1ccc(-c2ncon2)cc1F)[S+](=O)([O-])c1ccc(Cl)cc1 | 436 | 413 | 426 | 430 | 421 | 403 | 430 | 381 | 385 |
| Clc1ccc(C(Cn2ccnc2)OCc2ccsc2Cl)c(Cl)c1 (stereo not given) | 470 | 476 | 457 | 467 | 461 | 464 | 456 | 467 | 463 |
| O=C(Nc1ccncc1)C(=O)c1cn(Cc2ccc(Cl)cc2)c2ccccc12 | 306 | 315 | 311 | 281 | 275 | 288 | 249 | 237 | 247 |
| Oc1ccc(-c2nc(-c3ccncc3)c(-c3ccc(F)cc3)[nH]2)cc1 | 366 | 412 | 420 | 388 | 427 | 410 | 289 | 251 | 247 |
| CN1CCC(=C2c3ccccc3CCc3sccc32)CC1 | 460 | 477 | 466 | 472 | 471 | 465 | 453 | 459 | 464 |
| Clc1ccc(C(Cn2ccnc2)OCc2ccc(Sc3ccccc3)cc2)c(Cl)c1 (stereo not given) | 441 | 450 | 453 | 453 | 453 | 455 | 416 | 445 | 438 |
| NCC/1=C/NC(=S)N1[C@H]2CCC3=C(F)C=C(F)C=C3C2 | 395 | 470 | 466 | 464 | 463 | 462 | 458 | 453 | 456 |
| NC(=O)c1c(OCc2c(F)cc(Br)cc2F)nsc1NC(=O)NCCCCN1CCCC1 | 370 | 450 | 421 | 430 | 445 | 436 | 415 | 397 | 435 |
| Cc1nc(N)sc1-c1ccnc(Nc2ccc(N3CCOCC3)cc2)n1 | 447 | 447 | 432 | 389 | 392 | 399 | 382 | 368 | 359 |
| CCCCC(F)(F)[C@@]1(O)CC[C@H]2[C@@H](CC(=O)[C@@H]2CCCCCCC(=O)O)O1 | 446 | 447 | 411 | 451 | 444 | 456 | 455 | 459 | 456 |
| Cc1ccc(Nc2nccc(N(C)c3ccc4c(C)n(C)nc4c3)n2)cc1[S+](N)(=O)[O-] | 462 | 464 | 476 | 450 | 444 | 450 | 400 | 371 | 388 |
| O=C(O)CCCc1ccc(N(CCCl)CCCl)cc1 | 468 | 464 | 465 | 455 | 456 | 462 | 458 | 451 | 458 |
| COC1=CC(=C2C(=O)N(COC/3=C/C(=O)N4\C=C/C=C(OCCN5CCCCC5)\C4=N3)[S+]([O-])(=O)C2=C1)C(C)C | 460 | 463 | 471 | 477 | 460 | 470 | 476 | 452 | 436 |
| O=C(N[C@H]1CN2CCC1CC2)c1ccc(Cl)cc1 | 462 | 470 | 469 | 467 | 469 | 466 | 457 | 439 | 468 |
| COc1cc([S+](C)(=O)[O-])ccc1Nc1nc2ccc(-c3ccc(NC(=O)[C@H](C)c4ccc(F)cc4)cc3)cn2n1 | 430 | 439 | 436 | 396 | 386 | 394 | 377 | 369 | 384 |
